According to publication PMC10548512 (Chemical Science, 2023):

Legend:
[1] = system: H1N1pdm09 virus (A/Netherlands/602/2009)
H1 ectodomain = conditions: pH 7.5

Row | Compound | Infection inhibition in single-concentration screen [1] | Competition with fluorescein-labelled S5 for binding to H1 protein (H1 ectodomain) | IC50 ([1]; 1 h) [nM]
1 | H-CLNFQYRRSCILNILNBG-NH2 (disulfide) [M4] | did not show inhibition | – | –
2 | CC[C@H](C)[C@@H]1NC(=O)[C@H](CS)NC(=O)[C@H](CO)NC(=O)[C@H](CCCNC(=N)N)NC(=O)[C@H](CCCNC(=N)N)NC(=O)[C@H](Cc2ccc(O)cc2)NC(=O)[C@H](CCC(N)=O)NC(=O)[C@H](Cc2ccccc2)NC(=O)[C@H](CC(N)=O)NC(=O)[C@H](CC(C)C)NC(=O)[C@@H]2CSC(=N2)c2cc(ccn2)C[C@@H](C(=O)NCC(N)=O)NC(=O)[C@H](CC(N)=O)NC(=O)[C@H](CC(C)C)NC(=O)[C@H]([C@@H](C)CC)NC(=O)[C@H](CC(N)=O)NC(=O)[C@H](CC(C)C)NC1=O [M3] | clear infection inhibition | compete | 120
3 | H-CYYFTHSIFNNLIVFHBG-NH2 (sidechain bridge or staple) [M8] | minimal to no activity | showed competition | –
